The record followed here is patent US9701670B2, “Pyrazolyl-ureas as kinase inhibitors” (RESPIVERT LIMITED, priority 2013, dated 2017).

In series [1] the target is p38 MAPKα isoform (MAPK14) (Homo sapiens (Human), UniProt Q16539). The series is described as follows: p38 MAPKα enzyme inhibition (FRET, Z-LYTE), Method 1. The format is biochemical. The note with it: Method 1 (Table 4a1). Here is the method: The enzyme inhibitory activities of compounds disclosed herein are determined by FRET using synthetic peptides labelled with both donor and acceptor fluorophores (Z-LYTE, Invitrogen Ltd., Paisley, UK).
Sequence of p38 MAPKα isoform (MAPK14) (Q16539 whole entry, canonical isoform): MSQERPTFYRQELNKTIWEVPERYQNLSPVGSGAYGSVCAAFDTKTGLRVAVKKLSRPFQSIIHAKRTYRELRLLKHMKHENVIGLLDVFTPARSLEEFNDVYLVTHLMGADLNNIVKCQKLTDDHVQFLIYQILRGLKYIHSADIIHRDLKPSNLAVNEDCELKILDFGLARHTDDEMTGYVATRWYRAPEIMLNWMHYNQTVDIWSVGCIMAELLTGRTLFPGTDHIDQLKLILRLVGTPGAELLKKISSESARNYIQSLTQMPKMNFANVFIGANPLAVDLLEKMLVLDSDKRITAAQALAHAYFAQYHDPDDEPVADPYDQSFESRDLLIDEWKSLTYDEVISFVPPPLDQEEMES
The inhibitory activities of test compounds against the p38 MAPKα isoform (MAPK14: Invitrogen), are evaluated indirectly by determining the level of activation/phosphorylation of the down-stream molecule, MAPKAP-K2. The p38 MAPKα protein (80 ng/mL, 2.5 μL) is mixed with the test compound (2.5 μL of either 4 μg/mL, 0.4 μg/mL, 0.04 μg/mL or 0.004 μg/mL) for 2 hr at RT. […] The mixture is incubated for 1 hr at RT. Development reagent (protease, 5 μL) is added for 1 hr prior to detection in a fluorescence microplate reader (Varioskan® Flash, ThermoFisher Scientific).
In all cases, the site-specific protease cleaves non-phosphorylated peptide only and eliminates the FRET signal. Phosphorylation levels of each reaction are calculated using the ratio of coumarin emission (donor) over fluorescein emission (acceptor), for which high ratios indicate high phosphorylation and low ratios indicate low phosphorylation levels.

Series [2] relates to Differentiated U937 cells. The series is described as follows: (l) Cell viability: MTT assay. It is filed as cell-based, human. The following applies: 1 μg/mL. How it is done:
Differentiated U937 cells are pre-incubated with each test compound (final concentration 1 μg/mL or 10 μg/mL in 200 μL media indicated below) under two protocols: the first for 4 hr in 5% FCS RPMI1640 media and the second in 10% FCS RPMI1640 media for 24 h. The supernatant is replaced with new media (200 μL) and MTT stock solution (10 μL, 5 mg/mL) is added to each well. After incubation for 1 hr the media are removed, DMSO (200 μL) is added to each well and the plates are shaken lightly for 1 hr prior to reading the absorbance at 550 nm. The percentage loss of cell viability is calculated for each well relative to vehicle (0.5% DMSO) treatment. Consequently an apparent increase in cell viability for drug treatment relative to vehicle is tabulated as a negative percentage.
(In general: Formazan colour is commonly taken as a measure of viable cells.)

One may read the IC50 as the midpoint of a concentration-inhibition curve. A high value points to weaker potency. `Cc1ccc(-n2nc(C3(C)COC3)cc2NC(=O)Nc2ccc(Oc3ccnc(Nc4cccc(C(=O)NCCN5CCOCC5)c4)n3)c3ccccc23)cc1` [Example 22, 3-((4-((4-(3-(3-(3-methyloxetan-3-yl)-1-(p-tolyl)-1H-pyrazol-5-yl)ureido)naphthalen-1-yl)oxy)pyrimidin-2-yl)amino)-N-(2-morpholinoethyl)benzamide] displayed an IC50 in series [1] below 1 nM. In series [2], the “Cell viability at time point in d-U937 cells 4 h” value was “−ve (−ve and +ve indicate that the value is below and above respectively, the no significant effect threshold, defined as 30% inhibition at 1 μg/mL at the time point indicated.)”; the “Cell viability at time point in d-U937 cells 24 h” value was “−ve (−ve and +ve indicate that the value is below and above respectively, the no significant effect threshold, defined as 30% inhibition at 1 μg/mL at the time point indicated.)”.

In turn, `COc1ccc(-n2nc(C3(C)COC3)cc2NC(=O)Nc2ccc(Oc3ccnc(Nc4cccc(C(=O)NCCN5CCOCC5)c4)n3)c3ccccc23)cc1` [Example 23, 3-((4-((4-(3-(1-(4-methoxyphenyl)-3-(3-methyloxetan-3-yl)-1H-pyrazol-5-yl)ureido)naphthalen-1-yl)oxy)pyrimidin-2-yl)amino)-N-(2-morpholinoethyl)benzamide] showed a half-inhibitory concentration (IC50) in series [1] below 1 nM. In addition, in series [2], the “Cell viability at time point in d-U937 cells 4 h” value is “−ve (−ve and +ve indicate that the value is below and above respectively, the no significant effect threshold, defined as 30% inhibition at 1 μg/mL at the time point indicated.)”; the “Cell viability at time point in d-U937 cells 24 h” value is “−ve (−ve and +ve indicate that the value is below and above respectively, the no significant effect threshold, defined as 30% inhibition at 1 μg/mL at the time point indicated.)”.

`Cc1csc(-n2nc(C(C)(C)C)cc2NC(=O)Nc2ccc(Oc3ccnc(Nc4cccc(C(=O)NCCN5CCOCC5)c4)n3)c3ccccc23)c1` [Example 24, 3-((4-((4-(3-(3-(tert-butyl)-1-(4-methylthiophen-2-yl)-1H-pyrazol-5-yl)ureido)naphthalen-1-yl)oxy)pyrimidin-2-yl)amino)-N-(2-morpholinoethyl)benzamide] came in with a half-inhibitory concentration (IC50) in series [1] of 11 nM. Further, in series [2], the “Cell viability at time point in d-U937 cells 4 h” value is “−ve (−ve and +ve indicate that the value is below and above respectively, the no significant effect threshold, defined as 30% inhibition at 1 μg/mL at the time point indicated.)”; the “Cell viability at time point in d-U937 cells 24 h” value was “−ve (−ve and +ve indicate that the value is below and above respectively, the no significant effect threshold, defined as 30% inhibition at 1 μg/mL at the time point indicated.)”.

Take `Cc1ccc(-n2nc(C(C)(C)C)cc2NC(=O)Nc2ccc(Oc3ccnc(Nc4cccc(C(=O)NCCN5CCN(C)CC5)c4)n3)c3ccccc23)cc1` [Example 25, 3-((4-((4-(3-(3-(tert-butyl)-1-(p-tolyl)-1H-pyrazol-5-yl)ureido)naphthalen-1-yl)oxy)pyrimidin-2-yl)amino)-N-(2-(4-methylpiperazin-1-yl)ethyl)benzamide]: the IC50 in series [1] is 13 nM. Besides, in series [2], the “Cell viability at time point in d-U937 cells 4 h” value is “−ve (−ve and +ve indicate that the value is below and above respectively, the no significant effect threshold, defined as 30% inhibition at 1 μg/mL at the time point indicated.)”; the “Cell viability at time point in d-U937 cells 24 h” value was “−ve (−ve and +ve indicate that the value is below and above respectively, the no significant effect threshold, defined as 30% inhibition at 1 μg/mL at the time point indicated.)”.

Regarding `Cc1ccc(-n2nc(C(C)(C)C)cc2NC(=O)Nc2ccc(Oc3ccnc(Nc4cccc(C(=O)N(C)C)c4)n3)c3ccccc23)cc1` [Example 26, 3-((4-((4-(3-(3-(tert-butyl)-1-(p-tolyl)-1H-pyrazol-5-yl)ureido)naphthalen-1-yl)oxy)pyrimidin-2-yl)amino)-N,N-dimethylbenzamide], half-maximal inhibition in series [1] (IC50) was put at 12 nM. Moreover, in series [2], the “Cell viability at time point in d-U937 cells 4 h” value was “−ve (−ve and +ve indicate that the value is below and above respectively, the no significant effect threshold, defined as 30% inhibition at 1 μg/mL at the time point indicated.)”; the “Cell viability at time point in d-U937 cells 24 h” value was “−ve (−ve and +ve indicate that the value is below and above respectively, the no significant effect threshold, defined as 30% inhibition at 1 μg/mL at the time point indicated.)”.

In series [1], `Cc1ccc(-n2nc(C(C)(C)C)cc2NC(=O)Nc2ccc(Oc3ccnc(Nc4cccc(C(=O)N5CCOCC5)c4)n3)c3ccccc23)cc1` [Example 27, 1-(3-(tert-butyl)-1-(p-tolyl)-1H-pyrazol-5-yl)-3-(4-((2-((3-(morpholine-4-carbonyl)phenyl)amino)pyrimidin-4-yl)oxy)naphthalen-1-yl)urea] came in with a half-maximal inhibitory concentration (IC50) of 17 nM. In addition, in series [2], the “Cell viability at time point in d-U937 cells 4 h” value is “−ve (−ve and +ve indicate that the value is below and above respectively, the no significant effect threshold, defined as 30% inhibition at 1 μg/mL at the time point indicated.)”; the “Cell viability at time point in d-U937 cells 24 h” value is “−ve (−ve and +ve indicate that the value is below and above respectively, the no significant effect threshold, defined as 30% inhibition at 1 μg/mL at the time point indicated.)”.

As for `COc1ccc(C(=O)NCCN(C)C)cc1Nc1nccc(Oc2ccc(NC(=O)Nc3cc(C(C)C)nn3-c3ccc(C)cc3)c3ccccc23)n1` [Example 28, N-(2-(dimethylamino)ethyl)-3-((4-((4-(3-(3-isopropyl-1-(p-tolyl)-1H-pyrazol-5-yl)ureido)naphthalen-1-yl)oxy)pyrimidin-2-yl)amino)-4-methoxybenzamide], in series [1], the IC50 was below 1 nM. Besides, in series [2], the “Cell viability at time point in d-U937 cells 4 h” value was “−ve (−ve and +ve indicate that the value is below and above respectively, the no significant effect threshold, defined as 30% inhibition at 1 μg/mL at the time point indicated.)”; the “Cell viability at time point in d-U937 cells 24 h” value is “−ve (−ve and +ve indicate that the value is below and above respectively, the no significant effect threshold, defined as 30% inhibition at 1 μg/mL at the time point indicated.)”.

On to `COc1ccc(C(=O)NCCN2CCOCC2)cc1Nc1nccc(Oc2ccc(NC(=O)Nc3cc(C(C)C)nn3-c3ccc(C)cc3)c3ccccc23)n1` [Example 30, 3-((4-((4-(3-(3-isopropyl-1-(p-tolyl)-1H-pyrazol-5-yl)ureido)naphthalen-1-yl)oxy)pyrimidin-2-yl)amino)-4-methoxy-N-(2-morpholinoethyl)benzamide], for which the midpoint of inhibition in series [1], the IC50, lay at 3 nM. Further, in series [2], the “Cell viability at time point in d-U937 cells 4 h” value was “−ve (−ve and +ve indicate that the value is below and above respectively, the no significant effect threshold, defined as 30% inhibition at 1 μg/mL at the time point indicated.)”; the “Cell viability at time point in d-U937 cells 24 h” value is “−ve (−ve and +ve indicate that the value is below and above respectively, the no significant effect threshold, defined as 30% inhibition at 1 μg/mL at the time point indicated.)”.

The compound `COc1ccc(C(=O)NCCN2CCOCC2)cc1Nc1nccc(Oc2ccc(NC(=O)Nc3cc(C(C)(C)C)nn3-c3ccc(C)cc3)c3ccccc23)n1` [Example 31, 3-((4-((4-(3-(3-(tert-butyl)-1-(p-tolyl)-1H-pyrazol-5-yl)ureido)naphthalen-1-yl)oxy)pyrimidin-2-yl)amino)-4-methoxy-N-(2-morpholinoethyl)benzamide] had an IC50 in series [1] of 8 nM. For the same compound, in series [2], the “Cell viability at time point in d-U937 cells 4 h” value is “−ve (−ve and +ve indicate that the value is below and above respectively, the no significant effect threshold, defined as 30% inhibition at 1 μg/mL at the time point indicated.)”; the “Cell viability at time point in d-U937 cells 24 h” value is “−ve (−ve and +ve indicate that the value is below and above respectively, the no significant effect threshold, defined as 30% inhibition at 1 μg/mL at the time point indicated.)”.
